Results on 20 molecules are retold here after US10577353B2, “5-(n-[6,5]-fused bicyclic aryl tetrahydroisoquinolin-6-yl) pyridin-3-yl acetic acid derivatives as inhibitors of human immunodeficiency virus replication” (priority 2015, dated 2020).

For this assay, the system named is recombinant NL-RLuc virus (NL4-3 derived HIV). As to the kind of experiment: Inhibition of HIV replication (NL-RLuc virus in MT-2 cells, luciferase readout). Format: cell-based. To be noted: Human immunodeficiency virus 1, NL43, MT2, 120 h. The source says: Inhibition of HIV Replication:
A recombinant NL-RLuc proviral clone was constructed in which a section of the nef gene from NL4-3 was replaced with the Renilla Luciferase gene. This virus is fully infectious and can undergo multiple cycles of replication in cell culture. In addition, the luciferous reporter provides a simple and easy method for quantitating the extent of virus growth and consequently, the antiviral activity of test compounds. The plasmid pNLRLuc contains the proviral NL-Rluc DNA cloned into pUC 18 at the PvuII site. The NL-RLuc virus was prepared by transfection of 293T cells with the plasmid pNLRLuc. Transfections were performed using the LipofectAMINE PLUS kit from Invitrogen (Carlsbad, Calif.) according to the manufacturer and the virus generated was titered in MT-2 cells. For susceptibility analyses, the titrated virus was used to infect MT-2 cells in the presence of compound, and after 5 days of incubation, cells were processed and quantitated for virus growth by the amount of expressed luciferase. Assay media was RPMI 1640 supplemented with 10% heat inactivated fetal bovine serum (FBS), 100 units/ml penicillin G/100 units/ml streptomycin, 10 mM HEPES buffer pH 7.55 and 2 mM L-glutamine. The results from at least 2 experiments were used to calculate the EC50 values. Luciferase was quantitated using the Dual Luciferase kit from Promega (Madison, Wis.). Susceptibility of viruses to compounds was determined by incubation in the presence of serial dilutions of the compound. The 50% effective concentration (EC50) was calculated by using the exponential form of the median effect equation where (Fa)=1/[1+(ED50/drug conc.)^m] (Johnson V A, Byington R T. Infectivity Assay. In Techniques in HIV Research. ed. Aldovini A, Walker B D. 71-76. New York: Stockton Press. 1990).
For the molecule `Cc1ccc2nc(N3CCc4cc(-c5c(C)nc(C)c([C@H](OC(C)(C)C)C(=O)O)c5N5CCC(C)(C)CC5)ccc4C3)sc2c1` [Compound 9, (S)-2-(tert-butoxy)-2-(4-(4,4-dimethylpiperidin-1-yl)-2,6-dimethyl-5-(2-(6-methylbenzo[d]thiazol-2-yl)-1,2,3,4-tetrahydroisoquinolin-6-yl)pyridin-3-yl)acetic acid], the EC50 – broadly, the concentration giving half of the maximal effect – stood at 8 nM.

As for `Cc1nc(C)c([C@H](OC(C)(C)C)C(=O)O)c(N2CCC(C)(C)CC2)c1-c1ccc2c(c1)CCN(c1ncnc3cc[nH]c13)C2` [Compound 22, (S)-2-(5-(2-(5H-pyrrolo[3,2-d]pyrimidin-4-yl)-1,2,3,4-tetrahydroisoquinolin-6-yl)-4-(4,4-dimethylpiperidin-1-yl)-2,6-dimethylpyridin-3-yl)-2-(tert-butoxy)acetic acid], the EC50 was found to be 286 nM.

For `Cc1nc(C)c([C@H](OC(C)(C)C)C(=O)O)c(N2CCC(C)(C)CC2)c1-c1ccc2c(c1)CCN(c1ncnc3cc(C(C)(C)C)sc13)C2` [Compound 28, (S)-2-(tert-butoxy)-2-(5-(2-(6-(tert-butyl)thieno[3,2-d]pyrimidin-4-yl)-1,2,3,4-tetrahydroisoquinolin-6-yl)-4-(4,4-dimethylpiperidin-1-yl)-2,6-dimethylpyridin-3-yl)acetic acid], the EC50 amounted to 13 nM.

For `Cc1nc(C)c([C@H](OC(C)(C)C)C(=O)O)c(N2CCC(C)(C)CC2)c1-c1ccc2c(c1)CCN(c1nc(O)c3[nH]cnc3n1)C2` [Compound 21, (S)-2-(tert-butoxy)-2-(4-(4,4-dimethylpiperidin-1-yl)-5-(2-(6-hydroxy-7H-purin-2-yl)-1,2,3,4-tetrahydroisoquinolin-6-yl)-2,6-dimethylpyridin-3-yl)acetic acid], the EC50 is 5990 nM.

As for `COc1nc(N2CCc3cc(-c4c(C)nc(C)c([C@H](OC(C)(C)C)C(=O)O)c4N4CCC(C)(C)CC4)ccc3C2)c2cc[nH]c2n1` [Compound 27, (S)-2-(tert-butoxy)-2-(4-(4,4-dimethylpiperidin-1-yl)-5-(2-(2-methoxy-7H-pyrrolo[2,3-d]pyrimidin-4-yl)-1,2,3,4-tetrahydroisoquinolin-6-yl)-2,6-dimethylpyridin-3-yl)acetic acid], the EC50 is 2 nM.

Regarding `Cc1nc(C)c([C@H](OC(C)(C)C)C(=O)O)c(N2CCC(C)(C)CC2)c1-c1ccc2c(c1)CCN(c1ncnc3sccc13)C2` [Compound 14, (S)-2-(tert-butoxy)-2-(4-(4,4-dimethylpiperidin-1-yl)-2,6-dimethyl-5-(2-(thieno[2,3-d]pyrimidin-4-yl)-1,2,3,4-tetrahydroisoquinolin-6-yl)pyridin-3-yl)acetic acid], the EC50 worked out at 2 nM.

In the case of `Cc1nc(C)c([C@H](OC(C)(C)C)C(=O)O)c(N2CCC(C)(C)CC2)c1-c1ccc2c(c1)CCN(c1noc3ccccc13)C2` [Compound 18, (S)-2-(5-(2-(benzo[d]isoxazol-3-yl)-1,2,3,4-tetrahydroisoquinolin-6-yl)-4-(4,4-dimethylpiperidin-1-yl)-2,6-dimethylpyridin-3-yl)-2-(tert-butoxy)acetic acid], the EC50 was determined as 5 nM.

In the case of `Cc1nc(C)c([C@H](OC(C)(C)C)C(=O)O)c(N2CCC(C)(C)CC2)c1-c1ccc2c(c1)CCN(c1ncc3cc[nH]c3n1)C2` [Compound 25, (S)-2-(5-(2-(7H-pyrrolo[2,3-d]pyrimidin-2-yl)-1,2,3,4-tetrahydroisoquinolin-6-yl)-4-(4,4-dimethylpiperidin-1-yl)-2,6-dimethylpyridin-3-yl)-2-(tert-butoxy)acetic acid], the EC50 was 4 nM.

Regarding `Cc1nc(C)c([C@H](OC(C)(C)C)C(=O)O)c(N2CCC(C)(C)CC2)c1-c1ccc2c(c1)CCN(c1nc3ncc(C(F)(F)F)cc3s1)C2` [Compound 1, (S)-2-(tert-butoxy)-2-(4-(4,4-dimethylpiperidin-1-yl)-2,6-dimethyl-5-(2-(6-(trifluoromethyl)thiazolo[4,5-b]pyridin-2-yl)-1,2,3,4-tetrahydroisoquinolin-6-yl)pyridin-3-yl)acetic acid], the EC50 amounted to 3 nM.

With `Cc1nc(C)c([C@H](OC(C)(C)C)C(=O)O)c(N2CCC(C)(C)CC2)c1-c1ccc2c(c1)CCN(c1ncnc3c(C)csc13)C2` [Compound 15, (S)-2-(tert-butoxy)-2-(4-(4,4-dimethylpiperidin-1-yl)-2,6-dimethyl-5-(2-(7-methylthieno[3,2-d]pyrimidin-4-yl)-1,2,3,4-tetrahydroisoquinolin-6-yl)pyridin-3-yl)acetic acid], the EC50 stood at 2 nM.

With `Cc1nc(N2CCc3cc(-c4c(C)nc(C)c([C@H](OC(C)(C)C)C(=O)O)c4N4CCC(C)(C)CC4)ccc3C2)c2cnn(C)c2n1` [Compound 19, (S)-2-(tert-butoxy)-2-(5-(2-(1,6-dimethyl-1H-pyrazolo[3,4-d]pyrimidin-4-yl)-1,2,3,4-tetrahydroisoquinolin-6-yl)-4-(4,4-dimethylpiperidin-1-yl)-2,6-dimethylpyridin-3-yl)acetic acid], the half-maximal effective concentration (EC50) is 1 nM.

On to `Cc1nc(C)c([C@H](OC(C)(C)C)C(=O)O)c(N2CCC(C)(C)CC2)c1-c1ccc2c(c1)CCN(c1nc3cccnc3s1)C2` [Compound 2, (S)-2-(tert-butoxy)-2-(4-(4,4-dimethylpiperidin-1-yl)-2,6-dimethyl-5-(2-(thiazolo[5,4-b]pyridin-2-yl)-1,2,3,4-tetrahydroisoquinolin-6-yl)pyridin-3-yl)acetic acid], for which the EC50 is 1 nM.

In the case of `Cc1nc(C)c([C@H](OC(C)(C)C)C(=O)O)c(N2CCC(C)(C)CC2)c1-c1ccc2c(c1)CCN(c1nc3ncccc3s1)C2` [Compound 10, (S)-2-(tert-butoxy)-2-(4-(4,4-dimethylpiperidin-1-yl)-2,6-dimethyl-5-(2-(thiazolo[4,5-b]pyridin-2-yl)-1,2,3,4-tetrahydroisoquinolin-6-yl)pyridin-3-yl)acetic acid], the EC50 is 2 nM.

Turning to `Cc1nc(C)c([C@H](OC(C)(C)C)C(=O)O)c(N2CCC(C)(C)CC2)c1-c1ccc2c(c1)CCN(c1nc3cc(Cl)c(Cl)cc3s1)C2` [Compound 5, (S)-2-(tert-butoxy)-2-(5-(2-(5,6-dichlorobenzo[d]thiazol-2-yl)-1,2,3,4-tetrahydroisoquinolin-6-yl)-4-(4,4-dimethylpiperidin-1-yl)-2,6-dimethylpyridin-3-yl)acetic acid], the EC50 is 12 nM.

For the molecule `Cc1nc(C)c([C@H](OC(C)(C)C)C(=O)O)c(N2CCC(C)(C)CC2)c1-c1ccc2c(c1)CCN(c1nc3ccc(Cl)cc3s1)C2` [Compound 4, (S)-2-(tert-butoxy)-2-(5-(2-(6-chlorobenzo[d]thiazol-2-yl)-1,2,3,4-tetrahydroisoquinolin-6-yl)-4-(4,4-dimethylpiperidin-1-yl)-2,6-dimethylpyridin-3-yl)acetic acid], the EC50 came to 19 nM.

As to `Cc1nc(C)c([C@H](OC(C)(C)C)C(=O)O)c(N2CCC(C)(C)CC2)c1-c1ccc2c(c1)CCN(c1nccc3[nH]cnc13)C2` [Compound 24, (S)-2-(5-(2-(1H-imidazo[4,5-c]pyridin-4-yl)-1,2,3,4-tetrahydroisoquinolin-6-yl)-4-(4,4-dimethylpiperidin-1-yl)-2,6-dimethylpyridin-3-yl)-2-(tert-butoxy)acetic acid], the EC50 was determined as 56 nM.

Turning to `Cc1nc(C)c([C@H](OC(C)(C)C)C(=O)O)c(N2CCC(C)(C)CC2)c1-c1ccc2c(c1)CCN(c1nc3ccc(F)cc3s1)C2` [Compound 8, (S)-2-(tert-butoxy)-2-(4-(4,4-dimethylpiperidin-1-yl)-5-(2-(6-fluorobenzo[d]thiazol-2-yl)-1,2,3,4-tetrahydroisoquinolin-6-yl)-2,6-dimethylpyridin-3-yl)acetic acid], the EC50 is 5 nM.

In the case of `Cc1nc(C)c([C@H](OC(C)(C)C)C(=O)O)c(N2CCC(C)(C)CC2)c1-c1ccc2c(c1)CCN(c1nc3c(Cl)cccc3s1)C2` [Compound 7, (S)-2-(tert-butoxy)-2-(5-(2-(4-chlorobenzo[d]thiazol-2-yl)-1,2,3,4-tetrahydroisoquinolin-6-yl)-4-(4,4-dimethylpiperidin-1-yl)-2,6-dimethylpyridin-3-yl)acetic acid], the EC50 came out at 2 nM.

Take `Cc1nc(C)c([C@H](OC(C)(C)C)C(=O)O)c(N2CCC(C)(C)CC2)c1-c1ccc2c(c1)CCN(c1nc3c(Cl)cncc3s1)C2` [Compound 3, (S)-2-(tert-butoxy)-2-(5-(2-(7-chlorothiazolo[5,4-c]pyridin-2-yl)-1,2,3,4-tetrahydroisoquinolin-6-yl)-4-(4,4-dimethylpiperidin-1-yl)-2,6-dimethylpyridin-3-yl)acetic acid]: the EC50 turned out to be 1 nM.

Consider `Cc1nc(C)c([C@H](OC(C)(C)C)C(=O)O)c(N2CCC(C)(C)CC2)c1-c1ccc2c(c1)CCN(c1nc3cnccc3s1)C2` [Compound 11, (S)-2-(tert-butoxy)-2-(4-(4,4-dimethylpiperidin-1-yl)-2,6-dimethyl-5-(2-(thiazolo[4,5-c]pyridin-2-yl)-1,2,3,4-tetrahydroisoquinolin-6-yl)pyridin-3-yl)acetic acid], for which the EC50 amounted to 1 nM.
